Experimental data as given in patent US10864202B2, “Inhibitors of lysine specific demethylase-1” (CELGENE QUANTICEL RESEARCH, INC., priority 2014, dated 2020).

These molecules were tested on THP-1 (AML) cells (assay: LSD1 CD11b cellular assay (flow cytometry)). Details: Homo sapiens, 96 h; CD11b expression in THP-1 cells, 4 days incubation.
Assay type: cell-based
Procedure: To analyze LSD1 inhibitor efficacy in cells, a CD11b flow cytometry assay was performed. LSD1 inhibition induces CD11b expression in THP-1 (AML) cells which can be measured by flow cytometry. […] LSD1 test compounds were serially diluted in DMSO. The dilutions were added to each well accordingly to a final concentration of 0.2% DMSO. The cells were incubated at 37 degrees Celsius in 5% CO2 for 4 days. 250 μL of each well was transferred to a well in a 96 well round bottom plate. The plate was centrifuged at 1200 rpm at 4 degrees Celsius in a Beckman Coulter Alegra 6KR centrifuge for 5 minutes. The media was removed leaving the cells at the bottom of the wells. The cells were washed in 100 μL cold HBSS (Hank's Balanced Salt Solution) plus 2% BSA (Bovine Serum Albumin) solution and centrifuged at 1200 rpm at 4 degrees Celsius for 5 minutes. The wash was removed. […] The cells were centrifuged and washed two times in 100 μl HBSS plus 2% BSA. After the final spin the cells were resuspended in 100 μL HBSS plus 2% BSA containing 1 ug/mL DAPI (4′,6-diamidino-2-phenylindole). The cells were then analyzed by flow cytometry in a BD FACSAria machine. Cells were analyzed for CD11b expression. The percent of CD11b expressing cells for each inhibitor concentration was used to determine an IC50 curve for each compound analyzed.

**Q.** N#Cc1ccc(-c2nc(NCC3CCNC3)ncc2C#CC2CC2)cc1 (stereo not shown) [Example 26] was tested. Which IC50 did it give?
**A.** 100 to 1000 nM

The molecules below were run against human LSD1 (Homo sapiens (Human), UniProt O60341) (assay: In vitro enzyme inhibition assay LSD-1 (TR-FRET)). Details: full-length human LSD1, H3K4me1-biotin peptide.
Assay type: biochemical
Procedure: This assay determines the ability of a test compound to inhibit LSD1 demethylase activity.
The enzymatic assay of LSD1 activity is based on Time Resolved-Fluorescence Resonance Energy Transfer (TR-FRET) detection.
The ability of the compounds disclosed herein to inhibit LSD1 activity was quantified and the respective IC50 value was determined.

**Q.** How did the IC50 turn out when N#Cc1ccc(-c2cc3c(ccn3C[C@@H]3CCNC3)nc2N2CCOCC2)cc1 [Example 6] was run?
**A.** 100 to 1000 nM

**Q.** For N#Cc1ccc(-c2cc3c(ccn3CC3(F)CCNC3)nc2N2CCOCC2)cc1 (stereo not shown) [Example 8, 4-[1-[(3-fluoropyrrolidin-3-yl)methyl]-5-morpholin-4-ylpyrrolo[3,2-b]pyridin-6-yl]benzonitrile], which IC50 is on record?
**A.** 100 to 1000 nM

**Q.** How did the IC50 turn out when N#Cc1ccc(-c2nc(NC[C@H]3CCNC3)ncc2Cl)cc1 [Example 17, 4-(5-chloro-2-{[(3S)-pyrrolidin-3-ylmethyl]amino}pyrimidin-4-yl)benzonitrile] was run?
**A.** 100 to 1000 nM

**Q.** N#Cc1ccc(-c2nc(N3CC4CNCC(C3)O4)ncc2-c2ccc(F)cc2)cc1 [Example 42, 4-[5-(4-fluorophenyl)-2-{9-oxa-3,7-diazabicyclo[3.3.1]nonan-3-yl}pyrimidin-4-yl]benzonitrile] was tested. Which IC50 did it give?
**A.** 100 to 1000 nM

**Q.** Which IC50 does the source give for Cc1ccc(-c2cnc(NCC3CNCCO3)nc2-c2ccc(C#N)cc2)cc1 (racemic) [Example 33, (±)-4-[5-(4-methylphenyl)-2-[(morpholin-2-ylmethyl)amino]pyrimidin-4-yl]benzonitrile] here?
**A.** < 100 nM

**Q.** Which IC50 does the source give for Cc1ccc(-c2cnc(NCC3CCCNC3)nc2-c2ccc(C#N)cc2)cc1 (racemic) [Example 31, (±)-4-5-(4-methylphenyl)-2-[(piperidin-3-ylmethyl)amino]pyrimidin-4-yl]benzonitrile] here?
**A.** < 100 nM

**Q.** How did the IC50 turn out when Cc1ccc(-c2cnc(N[C@@H]3C[C@H]4CNC[C@H]4C3)nc2-c2ccc(C#N)cc2)cc1 [Example 27] was run?
**A.** 100 to 1000 nM

**Q.** With Cc1ccc(-c2cnc(N3CC4CNCC(C3)O4)nc2-c2ccc(C#N)cc2)cc1 [Example 41, 4-[5-(4-methylphenyl)-2-{9-oxa-3,7-diazabicyclo[3.3.1]nonan-3-yl}pyrimidin4-yl]benzonitrile] as the molecule, how does the IC50 read?
**A.** 100 to 1000 nM

**Q.** How did the IC50 turn out when N#Cc1ccc(-c2cc3c(ccn3C[C@H]3CCNC3)nc2Cl)cc1 [Example 4] was run?
**A.** 100 to 1000 nM
